Test results taken from PubChem BioAssay AID2060330 (Molecular Pharmacology Branch, DTP, NCI, 2025).

System: LG0703-F948-PDC spheroids with HUVEC/MSC, viability
Test: Anticancer human tumor LG0703-F948-PDC patient-derived lung adenocarcinoma cell line growth inhibition [IpAb]
Conditions: for IC50: curve of first compound; for viability, T/C: stronger effect = lower value
Summary of the method: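 Combinations with ipatasertib or abemaciclib were tested on tumour spheroids holding HUVEC (25%) and MSC (15%) alongside 60% malignant cells. Top concentration was at or near clinical Cmax (10 microM if undefined), descending in half-log steps.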
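Further: spheroids exposed to compounds for seven days before readout.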
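Wherever viability, T/C is given: T/C percent relative to DMSO vehicle wells set as 100% viability.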

CC(C)(C)c1cnc(CSc2cnc(NC(=O)C3CCNCC3)s2)o1 + CCN1CCN(Cc2ccc(Nc3ncc(F)c(-c4cc(F)c5nc(C)n(C(C)C)c5c4)n3)nc2)CC1
IC50 (second compound 0.01 µM): 77 nM
IC50 (second compound 0.0316 µM): 50.9 nM
IC50 (second compound 0.1 µM): 51.7 nM
IC50 (second compound 0.316 µM): 39.4 nM
IC50 (second compound 1 µM): 31.9 nM
viability, T/C (second compound 0.01 µM, first compound 0.00949 µM): 98.5%
viability, T/C (second compound 0.01 µM, first compound 0.03 µM): 86%
viability, T/C (second compound 0.01 µM, first compound 0.0949 µM): 43%
viability, T/C (second compound 0.01 µM, first compound 0.3 µM): 0.52%
viability, T/C (second compound 0.01 µM, first compound 0.949 µM): 0.27%
viability, T/C (second compound 0.01 µM, first compound 3 µM): 0.36%
viability, T/C (second compound 0.0316 µM, first compound 0.00949 µM): 79.2%
viability, T/C (second compound 0.0316 µM, first compound 0.03 µM): 67.3%
viability, T/C (second compound 0.0316 µM, first compound 0.0949 µM): 29.3%
viability, T/C (second compound 0.0316 µM, first compound 0.3 µM): 0.36%
viability, T/C (second compound 0.0316 µM, first compound 0.949 µM): 0.13%
viability, T/C (second compound 0.0316 µM, first compound 3 µM): 0.27%
viability, T/C (second compound 0.1 µM, first compound 0.00949 µM): 74.1%
viability, T/C (second compound 0.1 µM, first compound 0.03 µM): 71.5%
viability, T/C (second compound 0.1 µM, first compound 0.0949 µM): 25.9%
viability, T/C (second compound 0.1 µM, first compound 0.3 µM): 0.39%
viability, T/C (second compound 0.1 µM, first compound 0.949 µM): 0.19%
viability, T/C (second compound 0.1 µM, first compound 3 µM): 0.29%
viability, T/C (second compound 0.316 µM, first compound 0.00949 µM): 76.2%
viability, T/C (second compound 0.316 µM, first compound 0.03 µM): 62%
viability, T/C (second compound 0.316 µM, first compound 0.0949 µM): 11.2%
viability, T/C (second compound 0.316 µM, first compound 0.3 µM): 0.34%
viability, T/C (second compound 0.316 µM, first compound 0.949 µM): 0.2%
viability, T/C (second compound 0.316 µM, first compound 3 µM): 0.3%
viability, T/C (second compound 1 µM, first compound 0.00949 µM): 77.1%
viability, T/C (second compound 1 µM, first compound 0.03 µM): 48.5%
viability, T/C (second compound 1 µM, first compound 0.0949 µM): 29.2%
viability, T/C (second compound 1 µM, first compound 0.3 µM): 0.4%
viability, T/C (second compound 1 µM, first compound 0.949 µM): 0.41%
viability, T/C (second compound 1 µM, first compound 3 µM): 0.31%

Cn1nccc1Nc1nccc(-c2ccn(C(CO)c3ccc(Cl)c(F)c3)c(=O)c2)n1 (stereo not given) + CCN1CCN(Cc2ccc(Nc3ncc(F)c(-c4cc(F)c5nc(C)n(C(C)C)c5c4)n3)nc2)CC1
IC50 (second compound 0.01 µM): > 10000 nM
IC50 (second compound 0.0316 µM): 6420 nM
IC50 (second compound 0.1 µM): > 10000 nM
IC50 (second compound 0.316 µM): 7430 nM
IC50 (second compound 1 µM): > 10000 nM
viability, T/C (second compound 0.01 µM, first compound 0.0316 µM): 90.8%
viability, T/C (second compound 0.01 µM, first compound 0.1 µM): 77%
viability, T/C (second compound 0.01 µM, first compound 0.316 µM): 78.3%
viability, T/C (second compound 0.01 µM, first compound 1 µM): 67.7%
viability, T/C (second compound 0.01 µM, first compound 3.16 µM): 76.7%
viability, T/C (second compound 0.01 µM, first compound 10 µM): 68%
viability, T/C (second compound 0.0316 µM, first compound 0.0316 µM): 89.9%
viability, T/C (second compound 0.0316 µM, first compound 0.1 µM): 77.5%
viability, T/C (second compound 0.0316 µM, first compound 0.316 µM): 65%
viability, T/C (second compound 0.0316 µM, first compound 1 µM): 63%
viability, T/C (second compound 0.0316 µM, first compound 3.16 µM): 76.6%
viability, T/C (second compound 0.0316 µM, first compound 10 µM): 34.8%
viability, T/C (second compound 0.1 µM, first compound 0.0316 µM): 81.9%
viability, T/C (second compound 0.1 µM, first compound 0.1 µM): 73.4%
viability, T/C (second compound 0.1 µM, first compound 0.316 µM): 55.9%
viability, T/C (second compound 0.1 µM, first compound 1 µM): 58.9%
viability, T/C (second compound 0.1 µM, first compound 3.16 µM): 62.3%
viability, T/C (second compound 0.1 µM, first compound 10 µM): 46.6%
viability, T/C (second compound 0.316 µM, first compound 0.0316 µM): 73%
viability, T/C (second compound 0.316 µM, first compound 0.1 µM): 77.2%
viability, T/C (second compound 0.316 µM, first compound 0.316 µM): 56.6%
viability, T/C (second compound 0.316 µM, first compound 1 µM): 69.2%
viability, T/C (second compound 0.316 µM, first compound 3.16 µM): 63.4%
viability, T/C (second compound 0.316 µM, first compound 10 µM): 45.4%
viability, T/C (second compound 1 µM, first compound 0.0316 µM): 73.9%
viability, T/C (second compound 1 µM, first compound 0.1 µM): 64.2%
viability, T/C (second compound 1 µM, first compound 0.316 µM): 45.9%
viability, T/C (second compound 1 µM, first compound 1 µM): 61.6%
viability, T/C (second compound 1 µM, first compound 3.16 µM): 66.2%
viability, T/C (second compound 1 µM, first compound 10 µM): 51%
